Converted amounts (≈) assume the structure as drawn. The source made the active and inactive calls. No cut-off for these calls is given here.
Tests used:
[1] = Kinetic solubility of compound at pH 7.4; conditions: buffer
[2] = Thermodynamic solubility in fasted simulated intestinal fluid; type: physicochemical; conditions: read-out: Therm_solubility
[3] = Thermodynamic solubility in simulated gastric fluid; type: physicochemical; conditions: read-out: Therm_solubility
[4] = Plasma protein binding in human assessed as unbound fraction
[5] = Plasma protein binding in mouse assessed as unbound fraction
Blood [6] = assay: Inhibition of IL-12- induced IFN-gamma production in human whole blood; type: functional, tissue-based
Blood [7] = assay: Inhibition of IL-12- induced IFN-gamma production in mouse whole blood; type: functional, tissue-based
[8] = molecular target: Phosphodiesterase 4 (Homo sapiens) (UniProt P27815+Q08499+Q07343+Q08493); assay: Inhibition of human PDE4 at 10 uM measured by radioligand binding assay relative to control; type: protein assay
[9] = molecular target: Protein kinase C (PKC) (Rattus norvegicus) (UniProt P05696+P68403+P09216+P63319+P09215+Q64617+Q9WTQ0+P09217); assay: Inhibition of rat PKC at 10 uM measured by radioligand binding assay relative to control; type: protein assay
[10] = molecular target: Tyrosine-protein kinase Lck (Homo sapiens) (UniProt P06239); assay: Inhibition of human LCK at 10 uM measured by radioligand binding assay relative to control
Sequence of Tyrosine-protein kinase Lck (Homo sapiens) (P06239 2-509 limits assumed): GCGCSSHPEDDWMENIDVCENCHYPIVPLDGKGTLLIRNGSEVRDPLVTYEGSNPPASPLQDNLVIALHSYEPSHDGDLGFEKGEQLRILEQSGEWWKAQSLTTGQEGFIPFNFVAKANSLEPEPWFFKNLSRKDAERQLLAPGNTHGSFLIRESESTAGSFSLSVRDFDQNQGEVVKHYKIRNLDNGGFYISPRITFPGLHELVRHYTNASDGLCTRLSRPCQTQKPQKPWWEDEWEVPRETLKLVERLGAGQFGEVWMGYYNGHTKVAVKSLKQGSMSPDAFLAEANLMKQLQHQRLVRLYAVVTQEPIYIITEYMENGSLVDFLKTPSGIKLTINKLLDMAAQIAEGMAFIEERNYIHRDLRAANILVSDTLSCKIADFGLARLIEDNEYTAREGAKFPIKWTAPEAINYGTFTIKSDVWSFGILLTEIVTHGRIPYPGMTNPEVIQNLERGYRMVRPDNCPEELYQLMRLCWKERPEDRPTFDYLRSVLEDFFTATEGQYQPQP

[11] = molecular target: T1, Alpha-2B adrenergic receptor (Homo sapiens) (UniProt P18089); assay: Inhibition of human adrenergic alpha2B at 10 uM measured by radioligand binding assay relative to control
T1 sequence (whole entry): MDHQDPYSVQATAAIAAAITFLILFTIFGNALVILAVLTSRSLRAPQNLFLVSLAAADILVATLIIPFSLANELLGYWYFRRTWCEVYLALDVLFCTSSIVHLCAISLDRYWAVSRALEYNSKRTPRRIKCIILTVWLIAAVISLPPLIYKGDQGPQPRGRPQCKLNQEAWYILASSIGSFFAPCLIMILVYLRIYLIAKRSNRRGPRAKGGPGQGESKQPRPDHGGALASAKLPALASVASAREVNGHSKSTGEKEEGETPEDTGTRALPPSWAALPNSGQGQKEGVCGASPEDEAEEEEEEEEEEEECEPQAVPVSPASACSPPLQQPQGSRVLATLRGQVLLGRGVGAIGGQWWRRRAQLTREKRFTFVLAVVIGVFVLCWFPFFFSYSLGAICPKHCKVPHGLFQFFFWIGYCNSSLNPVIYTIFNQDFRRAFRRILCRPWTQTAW

[12] = molecular target: T2, Peroxisome proliferator-activated receptor gamma (Homo sapiens) (UniProt P37231); assay: Inhibition of human PPARgamma at 10 uM measured by radioligand binding assay relative to control
T2 sequence (whole entry): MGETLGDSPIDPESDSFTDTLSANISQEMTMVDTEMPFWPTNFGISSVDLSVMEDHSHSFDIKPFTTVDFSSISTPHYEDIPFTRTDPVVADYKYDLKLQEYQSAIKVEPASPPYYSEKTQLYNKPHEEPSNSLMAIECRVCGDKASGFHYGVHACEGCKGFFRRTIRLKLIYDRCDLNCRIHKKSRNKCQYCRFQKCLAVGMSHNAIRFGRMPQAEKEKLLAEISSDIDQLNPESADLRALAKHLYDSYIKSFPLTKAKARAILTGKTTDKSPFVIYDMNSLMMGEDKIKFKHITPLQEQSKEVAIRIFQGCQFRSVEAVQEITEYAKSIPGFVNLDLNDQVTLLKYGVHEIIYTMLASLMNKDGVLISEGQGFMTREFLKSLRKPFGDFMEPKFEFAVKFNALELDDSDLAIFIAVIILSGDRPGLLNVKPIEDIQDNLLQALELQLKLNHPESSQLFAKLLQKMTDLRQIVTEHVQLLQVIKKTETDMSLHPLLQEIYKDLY

[13] = Plasma protein binding in rat
[14] = Plasma protein binding in dog
[15] = Plasma protein binding in rat assessed as unbound fraction
[16] = Plasma protein binding in dog assessed as unbound fraction
[17] = Clearance in mouse at 3 mg/kg, iv; type: ADME, organism-based; conditions: in vivo
[18] = Clearance in rat at 3 mg/kg, iv; type: ADME, organism-based; conditions: in vivo
[19] = Clearance in dog at 3 mg/kg, iv; type: ADME, organism-based, Canis lupus familiaris; conditions: in vivo
[20] = Half-life in mouse at 3 mg/kg, iv; type: ADME, organism-based; conditions: in vivo
[21] = Half-life in rat at 3 mg/kg, iv; type: ADME, organism-based; conditions: in vivo
[22] = Half-life in dog at 3 mg/kg, iv; type: ADME, organism-based, Canis lupus familiaris; conditions: in vivo
[23] = Volume of distribution in mouse at 3 mg/kg, iv; type: ADME, organism-based; conditions: in vivo
[24] = Volume of distribution in rat at 3 mg/kg, iv; type: ADME, organism-based; conditions: in vivo
[25] = Volume of distribution in dog at 3 mg/kg, iv; type: ADME, organism-based, Canis lupus familiaris; conditions: in vivo
[26] = Oral bioavailability in mouse at 10 mg/kg; type: ADME, organism-based; conditions: in vivo
[27] = Oral bioavailability in rat at 10 mg/kg; type: ADME, organism-based; conditions: in vivo
[28] = Oral bioavailability in dog at 10 mg/kg; type: ADME, organism-based, Canis lupus familiaris; conditions: in vivo
Mus musculus [29] = assay: Anti-inflammatory activity in IL-23-induced ear inflammation model of mouse assessed as inhibition of ear swelling at 100 mg/kg/day; type: functional
Mus musculus [30] = assay: Anti-inflammatory activity in IL-23-induced ear inflammation model of mouse assessed as inhibition of IL-17A levels at 100 mg/kg/day; type: functional
Mus musculus [31] = assay: Anti-inflammatory activity in imiquimod-induced mouse psoriasis model assessed as reduction in psoriasis score at 10 to 100 mg/kg/day; type: functional, organism-based; conditions: dose 10-100 mg/kg/day
Spleen [32] = assay: Anti-inflammatory activity in imiquimod-induced mouse psoriasis model assessed as reduction in spleen weight at 10 to 100 mg/kg/day; type: functional, organism-based; conditions: dose 10-100 mg/kg/day
Spleen [33] = assay: Anti-inflammatory activity in imiquimod-induced mouse psoriasis model assessed as reduction in inflammation in spleen at 10 to 100 mg/kg/day; type: functional, organism-based; conditions: dose 10-100 mg/kg/day

**Q.** For `O=C1NCc2nc(-c3c(F)cccc3F)cc(Nc3ccc(C(=O)N4CCCC4)cc3)c21`, which solubility kinetic [1] is on record?
**A.** 270 µM (≈ 117 µg/mL)

**Q.** What about the solubility thermodynamic [2] of the same compound?
**A.** 240 µM (≈ 104 µg/mL)

**Q.** What about the solubility thermodynamic [3] of the same compound?
**A.** 2300 µM (≈ 999 µg/mL)

**Q.** And the fraction unbound [4]?
**A.** 0.099

**Q.** And the fraction unbound [5]?
**A.** 0.061

**Q.** And the fIC50 (Blood [6])?
**A.** 0.18 µM

**Q.** And the IC50 (Blood [6]; Homo sapiens, Blood)?
**A.** 1.8 µM

**Q.** And the fIC50 (Blood [7])?
**A.** 0.36 µM

**Q.** And the IC50 (Blood [7]; Mus musculus, Blood)?
**A.** 5.9 µM

**Q.** And the inhibition [8]?
**A.** 59%

**Q.** And the inhibition [9]?
**A.** 66%

**Q.** What about the inhibition [10] of the same compound?
**A.** 61%

**Q.** What about the inhibition [11] of the same compound?
**A.** 56%

**Q.** What about the inhibition [12] of the same compound?
**A.** 68%

**Q.** What about the fraction unbound [13] of the same compound?
**A.** 0.13

**Q.** And the fraction unbound [14]?
**A.** 0.13

**Q.** And the fraction unbound [15]?
**A.** 0.1

**Q.** And the fraction unbound [16]?
**A.** 0.13

**Q.** What about the clearance [17] of the same compound?
**A.** 28 mL/min/kg

**Q.** What about the clearance [18] of the same compound?
**A.** 27 mL/min/kg

**Q.** And the clearance [19]?
**A.** 5.2 mL/min/kg

**Q.** What about the half-life [20] of the same compound?
**A.** 1.8 h

**Q.** And the half-life [21]?
**A.** 1.6 h

**Q.** And the half-life [22]?
**A.** 6.5 h

**Q.** And the Vd [23]?
**A.** 1.2 L/kg

**Q.** What about the Vd [24] of the same compound?
**A.** 1.9 L/kg

**Q.** What about the Vd [25] of the same compound?
**A.** 2.5 L/kg

**Q.** And the bioavailability [26]?
**A.** > 90%

**Q.** And the bioavailability [27]?
**A.** 32%

**Q.** What about the bioavailability [28] of the same compound?
**A.** 63%

**Q.** And the inhibition in vivo at 100 mg/kg/day (Mus musculus [29])?
**A.** 74%

**Q.** What about the inhibition in vivo at 100 mg/kg/day (Mus musculus [30]) of the same compound?
**A.** 96%

**Q.** What about the Activity (Mus musculus [31]) of the same compound?
**A.** Active

**Q.** And the Activity (Spleen [32])?
**A.** Active

**Q.** And the Activity (Spleen [33])?
**A.** Active
